Data reported in patent US20070219231A1, “Quinolonecarboxylic acid compounds, preparation methods and pharmaceutical uses thereof” (priority 2005, published 2007).

Experiments:
Test in all cases: MIC, two-fold plate dilution method
Type in all cases: cell-based
S. pneumoniae 98 = test system: S. pneumoniae 98; design: unit not given here; settings: S. pneumoniae 98, Gram-positive; Muener-Hinton medium
Text: (§1) . The pharmaceutically acceptable salts or hydrates thereof have the same antibacterial activity.
(§2) Two-fold plate dilution method is used for determination of activity, with Muener-Hinton medium (DIFCO) as the culture medium and clinically isolated pathogenic strain, quality control strain and standard strain (provided by National Institute for the Control of Pharmaceutical and Biological Products) as test strains.

S. aureus ATTC 25923 = test system: S. aureus ATTC 25923; design: unit not given here; settings: S. aureus ATTC 25923, Gram-positive; Muener-Hinton medium
Text: as §2

E. coli 26 = settings: E. coli 26, Gram-negative; Muener-Hinton medium
Text: as §1, §2

E. coli ATTC 25922 = test system: E. coli ATTC 25922; design: unit not given here; settings: E. coli ATTC 25922, Gram-negative; Muener-Hinton medium
Text: as §1, §2

S. pneumoniae 70 = test system: S. pneumoniae 70; design: unit not given here; settings: S. pneumoniae 70, Gram-positive; Muener-Hinton medium
Text: as §1, §2

K. pneumoniae 14 = test system: K. pneumoniae 14; design: unit not given here; settings: K. pneumoniae 14, Gram-negative; Muener-Hinton medium
Text: as §1, §2

K. pneumoniae 7 = settings: K. pneumoniae 7, Gram-negative; Muener-Hinton medium
Text: as §1, §2

Enterococcus 755 = settings: Enterococcus 755, Gram-positive; Muener-Hinton medium
Text: as §1, §2

SMILES	MIC (S. pneumoniae 98)	MIC (S. aureus ATTC 25923)	MIC (E. coli 26)	MIC (E. coli ATTC 25922)	MIC (S. pneumoniae 70)	MIC (K. pneumoniae 14)	MIC (K. pneumoniae 7)	MIC (Enterococcus 755)
Cl.O=C(O)c1cn(C2CC2)c2c(OC(F)F)c(N3C[C@@H]4CCCN[C@@H]4C3)c(F)cc2c1=O (racemic) [Embodiment 15, 1-Cyclopropyl-8-difluoromethoxyl-7-[cis-2,8-diazabicyclo[4,3,0]nonane-8-yl]-6-fluoro-1,4-dihydro-4-oxoquinoline-3-carboxylic acid hydrochloride]	0.12	0.12	–	–	–	–	–	–
Nc1c(F)c(N2C[C@@H]3CCCN[C@@H]3C2)c(OC(F)F)c2c1c(=O)c(C(=O)O)cn2C1CC1 (relative stereo) [Embodiment 21, 5-Amino-1-cyclopropyl-8-difluoromethoxyl-7-(cis-2,8-diazabicyclo[4,3,0]nonane-8-yl)-6-fluoro-1,4-dihydro-4-oxoquinoline-3-carboxylic acid]	–	–	<0.00 g/mL	–	–	–	–	–
Cl.Nc1c(F)c(N2C[C@@H]3CCCN[C@@H]3C2)c(OC(F)F)c2c1c(=O)c(C(=O)O)cn2C1CC1 [Embodiment 17, 5-amino-1-cyclopropyl-8-difluoromethoxyl-7-[(1S,6S)-2,8-diazabicyclo[4,3,0]nonane-8-yl]-6-fluoro-1,4-dihydro-4-oxoquinoline-3-carboxylic acid hydrochloride]	0.01	–	0.01 g/mL	0.01	0.01	0.01	0.01 g/mL	0.01 g/mL
Cl.Nc1c(F)c(N2C[C@H]3CCCN[C@H]3C2)c(OC(F)F)c2c1c(=O)c(C(=O)O)cn2C1CC1 [Embodiment 18, 5-Amino-1-cyclopropyl-8-difluoromethoxyl-7-[(1R,6R)-2,8-diazabicyclo[4,3,0]nonane-8-yl]-6-fluoro-1,4-dihydro-4-oxoquinoline-3-carboxylic acid hydrochloride]	0.12	–	0.01 g/mL	0.01	–	0.01	0.01 g/mL	–

Now from value to compound, other results behind:

MIC (S. pneumoniae 98)	MIC (S. aureus ATTC 25923)	SMILES	MIC (E. coli 26)	MIC (E. coli ATTC 25922)	MIC (S. pneumoniae 70)	MIC (K. pneumoniae 14)	MIC (K. pneumoniae 7)	MIC (Enterococcus 755)
0.01	–	Cl.O=C(O)c1cn(C2CC2)c2c(OC(F)F)c(N3C[C@@H]4CCCN[C@@H]4C3)c(F)cc2c1=O [Embodiment 13, 1-cyclopropyl-8-difluoromethoxyl-7-[(1S,6S)-2,8-diazabicyclo[4,3,0]nonane-8-yl]-6-fluoro-1,4-dihydro-4-oxoquinoline-3-carboxylic acid hydrochloride]	0.01 g/mL	0.01	0.12	0.01	0.01 g/mL	–
0.01	–	Cl.O=C(O)c1cn(C2CC2)c2c(OC(F)F)c(N3C[C@H]4CCCN[C@H]4C3)c(F)cc2c1=O [Embodiment 14, 1-cyclopropyl-8-difluoromethoxyl-7-[(1R,6R)-2,8-diazabicyclo[4,3,0]nonane-8-yl]-6-fluoro-1,4-dihydro-4-oxoquinoline-3-carboxylic acid hydrochloride]	–	0.01	–	–	–	–
